Laboratory results from PMC10728895, “Stapled Phd Peptides Inhibit Doc Toxin Induced Growth Arrest in Salmonella” (ACS Chemical Biology, 2023).
Positions of bridges follow the written chain, without caps; N, C: chain ends. Non-standard residues stand in square brackets, D forms with d. Residues, ends and D or L forms follow the SMILES beside them. *: point of attachment. 5FAM = O=C1OC2(c3ccc(O)cc3Oc3cc(O)ccc32)c2ccc(C(=O)*)cc21; S5 = C=CCCC[C@](C)(N)C(=O)O; Nle = CCCC[C@H](N)C(=O)O

What was measured:
[1] = test system: S. typhimurium (14028s) glmS::mCherry strain; assay: Peptide uptake in S. typhimurium by flow cytometry; format: cell-based; conditions: RT
Method: S. typhimurium (14028s) glmS::mCherry strain was grown overnight in LB medium containing 1% glucose. The culture was then diluted to an OD600 of approximately 0.1 into 200 μL of fresh M9 minimal medium supplemented with 0.5% arabinose containing 2 or 10 μM of the indicated 5(6)-carboxyfluorescein-labeled Phd^52–73 peptide. The samples were incubated on the bench at RT for 4 or 22 h with no access to light. Bacteria were then spun down, washed with 1 mL of PBS solution, and finally resuspended in 1 mL of PBS solution for flow cytometry analysis (BD LSR II). Constitutively expressed mCherry was used to discriminate bacteria from the debris in each sample.

E. coli MG1655 = assay: Peptide uptake in E. coli by flow cytometry; format: cell-based; conditions: 5 μM FAM-labeled peptide in PBS, 2 h, 37 °C, E. coli MG1655, trypan blue quench, mean ± SD
Method: E. coli MG1655 strain was grown in LB medium to an OD600 of around 0.5. Approximately 10^7 cells were washed once with PBS and subsequently incubated with 5 μM of the indicated 5(6)-carboxyfluorescein-labeled Phd^52–73 peptide in PBS (500 μL) for 2 h at 37 °C. Bacteria were washed twice with PBS, and trypan blue (1 mg mL^–1) in PBS was added and incubated for 10 min at RT. Bacteria were washed an additional time with PBS and resuspended in 2 mL of PBS. Flow cytometry analysis was performed using a ThermoFisher Attune NxT and a blue laser (BL1) for fluorescein excitation.

Row | Structure (SMILES) | Uptake into S. typhimurium (penetration efficiency) ([1]; 10 μM FAM-labeled peptide, 4 or 22 h, M9 minimal medium) | Cellular uptake into E. coli (penetration efficiency) (E. coli MG1655) | Uptake into S. typhimurium (% fluorescent cells) ([1]; 10 μM FAM-labeled peptide, 22 h) | Uptake into S. typhimurium, in words ([1]; 2 and 10 μM FAM-labeled peptide, 4 and 22 h)
1 | CCCC[C@H](NC(=O)[C@H](Cc1c[nH]c2ccccc12)NC(=O)c1ccc2c(c1)C(=O)OC21c2ccc(O)cc2Oc2cc(O)ccc21)C(=O)N[C@@H](CCCNC(=N)N)C(=O)N[C@@H](CC(=O)O)C(=O)N[C@@H](CCC(=O)O)C(=O)N[C@@H](Cc1ccccc1)C(=O)N[C@@H](C)C(=O)N[C@@H](C)C(=O)N[C@H](C(=O)N[C@@H](CCCC)C(=O)N[C@@H](CCCNC(=N)N)C(=O)N[C@H](C(=O)N[C@@H](Cc1c[nH]cn1)C(=O)NCC(=O)N[C@@]1(C)CCCC=CCCC[C@@](C)(C(=O)N[C@@H](CC(C)C)C(=O)N[C@@H](C)C(=O)N[C@@H](CC(=O)O)C(=O)N[C@@H](CCCCN)C(=O)O)NC(=O)[C@H](CCCNC(=N)N)NC(=O)[C@H](CC(C)C)NC(=O)[C@H](CCC(=O)O)NC1=O)C(C)C)[C@@H](C)CC [FAM-18] (5FAM-W[Nle]RDEFAAI[Nle]RVHG[S5]ELR[S5]LADK-OH; staple 15-19) | 9–30% | 7–14% |  | 
2 | CCCC[C@H](NC(=O)[C@H](Cc1c[nH]c2ccccc12)NC(=O)c1ccc2c(c1)C(=O)OC21c2ccc(O)cc2Oc2cc(O)ccc21)C(=O)N[C@@H](CC(=O)O)C(=O)N[C@@H](CC(=O)O)C(=O)N[C@@H](CCC(=O)O)C(=O)N[C@@H](Cc1ccccc1)C(=O)N[C@@H](C)C(=O)N[C@@H](C)C(=O)N[C@H](C(=O)N[C@@H](CCCC)C(=O)N[C@@H](C)C(=O)N[C@H](C(=O)N[C@@H](Cc1c[nH]cn1)C(=O)NCC(=O)N[C@@H](CC(N)=O)C(=O)N[C@@H](CCC(=O)O)C(=O)N[C@@H](CC(C)C)C(=O)N[C@@H](CCCNC(=N)N)C(=O)N[C@@H](CCC(=O)O)C(=O)N[C@@H](CC(C)C)C(=O)N[C@@H](C)C(=O)N[C@@H](CC(=O)O)C(=O)N[C@@H](CCCCN)C(=O)O)C(C)C)[C@@H](C)CC [FAM-1] (5FAM-W[Nle]DDEFAAI[Nle]AVHGNELRELADK-OH) |  | extremely low uptake | less than 1% | very low uptake
3 | CCCC[C@H](NC(=O)[C@H](Cc1c[nH]c2ccccc12)NC(=O)c1ccc2c(c1)C(=O)OC21c2ccc(O)cc2Oc2cc(O)ccc21)C(=O)N[C@@H](CCCNC(=N)N)C(=O)N[C@@H](CC(=O)O)C(=O)N[C@@H](CCC(=O)O)C(=O)N[C@@H](Cc1ccccc1)C(=O)N[C@@H](CCCNC(=N)N)C(=O)N[C@@H](C)C(=O)N[C@H](C(=O)N[C@@H](CCCC)C(=O)N[C@@H](CCCNC(=N)N)C(=O)N[C@H](C(=O)N[C@@H](Cc1c[nH]cn1)C(=O)NCC(=O)N[C@@H](CC(N)=O)C(=O)N[C@@H](CCC(=O)O)C(=O)N[C@@H](CC(C)C)C(=O)N[C@@H](CCCNC(=N)N)C(=O)N[C@@H](CCC(=O)O)C(=O)N[C@@H](CC(C)C)C(=O)N[C@@H](C)C(=O)N[C@@H](CC(=O)O)C(=O)N[C@@H](CCCCN)C(=O)O)C(C)C)[C@@H](C)CC [FAM-19] (5FAM-W[Nle]RDEFRAI[Nle]RVHGNELRELADK-OH) |  | 7–14% |  | 
